According to patent US10953026B2, “N-acetyl mannosammine as a therapeutic agent” (THE UNITED STATES OF AMERICA, as represented by the …, priority 2007, dated 2021):
Values joined by “and” are separate entries in the source; they are usually repeats but may differ in a detail not shown here. Equal entries are not always repeated. “Also recorded” adds a separate entry of the source.

Key:
cultured cells = settings: incubation of cultured cells; cited from earlier work
podocalyxin = experiment: Immunoblots of kidney extracts with podocalyxin antibodies (sialylation status); assay type: in vivo, mouse; settings: after ManNAc treatment, P2
Description: (§1) A rabbit polyclonal antibody was custom prepared against a Gne/Mnk peptide comprising amino acids 588-607 ([…], SEQ ID NO:8), coupled to keyhole limpet hemocyanine, and affinity purified against the corresponding antigenic peptide (Covance). The following additional primary antibodies were commercially obtained: dystrophin (catalog no. ab15277; Abcam); α-dystroglycan (clone IIH6C4; Upstate Biotechnology); laminin-1 (catalog no. L9393; Sigma-Aldrich); podocalyxin (catalog no. PODX11-A; Alpha Diagnostic International); podocin (catalog no. P0372; Sigma-Aldrich); laminin β1 (catalog no. MAB1928; Millipore); desmin (catalog no. 1466-1; Epitomics); α-SMA (SPM332; GeneTex Inc.); PSA-NCAM (catalog no. MAB5324; Millipore); and β-actin (catalog no. AAN01; Cytoskeleton).
The lysates were sonicated and cleared by centrifugation (1000 g for 10 minutes), and the resulting supernatants were assayed for protein (BCA Protein Assay; Pierce Biotechnology). For the neuraminidase enzymatic treatments (FIG. 6E), protein homogenates (25 mg) were incubated for 30 min at 37° C. with 1 mU/mg of neuraminidase (catalog no. N6514; Sigma-Aldrich). Equal amounts of protein ([…]) were electrophoresed on 4%-12% Tris-Glycine gels (Novex; Invitrogen), and electroblotted onto […] Hybond ECL nitrocellulose membranes (GE Healthcare). […]

[1] = single dose of 0.142 g/kg/day; cited from earlier work
Gne^M712T/M712T mice [2] = experiment: Mouse histology (H&E) after ManNAc treatment; assay type: in vivo
Method: Mouse tissues were collected, formalin fixed (10%) and paraffin embedded. Tissue sections ([…]) were stained with H&E following standard procedures (American Histolabs) or subjected to immunohistochemistry with a variety of primary antibodies. Formalin-fixed tissues were deparaffinized in HistoClear II (National Diagnostics) and […] in a series of ethanol solutions. Antigen retrieval was performed for sections that were to be stained with antibodies against Gne/Mnk (by boiling 5 minutes in citric acid-based solution; Vector Laboratories) and against dystrophin (by boiling in 1 mM EDTA according the manufacturer's protocol; AbCam). The sections were blocked (2% BSA, 10% donkey serum, and 0.1% Triton X-100 in PBS) and incubated with primary antibodies (Gne/Mnk 1:50; laminin 1:25; dystrophin 1:50) overnight at 4° C., followed by incubation with the secondary antibody, Alexa Fluor 488-conjugated donkey anti-rabbit (1:500 in blocking solution) (Invitrogen). The sections were mounted in VECTASHIELD Mounting Medium (Vector Laboratories) and viewed and digitally imaged with a Zeiss Axiovert 200M microscope (Zeiss).
(§2) Breeding pairs of 6-week-old GneM^712T/+ mice were divided into 3 groups. Group I consisted of 9 GneM^712T/+ breeding pairs, who were administered untreated sterilized tap water. Group II consisted of 1 breeding pair of Gne^+/+ mice (wild-type control) and 6 GneM^712T/+ breeding pairs, who were administered water containing 1 mg/ml (˜0.2 g/kg/day) ManNAc (Sigma-Aldrich). […] Group III consisted of 1 Gne^+/+ breeding pair and 7 GneM^712T/+ breeding pairs, who were administered water supplemented with 5 mg/ml (˜1.0 g/kg/day) ManNAc. Water was changed twice weekly. Nursing females continued to be supplied with ManNAc. All mice were weaned from ManNAc at 21 days. Selected whole litters were euthanized at age P2, P6, and P19 for histological, genetic, biochemical, or ultrastructural analysis.

[3] = test system: Gne-deficient mouse embryonic stem cells; settings: growth medium supplemented with ManNAc; cited from earlier work
Gne/Mnk epimerase = experiment: Gne-epimerase enzymatic assay in skeletal muscle of ManNAc-treated mice; assay type: in vivo, mouse
Method: as §2
Mouse kidney and skeletal muscle (quadriceps) tissues were homogenized and subjected to the Gne-epimerase enzymatic assay as previously described (11, 58). This assay was based on incubation with radiolabeled substrate (Uridine diphosphate N-acetyl glucosamine [1-^3H]; American Radiolabeled Chemicals Inc.) and detection of radiolabeled product ([^3H]ManNAc) upon separation of oligosaccharides by high-pH anion-exchange chromatography with pulsed amperometric detection (Dionex).

PSA-NCAM = experiment: Immunoblots with PSA-NCAM antibodies (sialylation status); assay type: in vivo, mouse
Description: as §1
(§3) Mouse tissues (age P2) were extracted, homogenized in CelLytic buffer consisting of a mild detergent, bicine buffer, and 150 mM NaCl (Sigma-Aldrich) supplemented with protease inhibitors (Complete Mini; Roche Applied Science). The lysates were sonicated and cleared by centrifugation (1000 g for 10 minutes), and the resulting supernatants were assayed for protein (BCA Protein Assay; Pierce Biotechnology). […]
The degree of sialylation of two heavily sialylated marker proteins, PSA-NCAM and podocalyxin was evaluated. […]

Gne/Mnk protein = experiment: Immunoblots of muscle and kidney extracts with anti-Gne/Mnk antibodies; assay type: in vivo, mouse
Description: as §1
Mouse tissues (age P2) were extracted, homogenized in CelLytic buffer consisting of a mild detergent, bicine buffer, and 150 mM NaCl (Sigma-Aldrich) supplemented with protease inhibitors (Complete Mini; Roche Applied Science). The lysates were sonicated and cleared by centrifugation (1000 g for 10 minutes), and the resulting supernatants were assayed for protein (BCA Protein Assay; Pierce Biotechnology). For the neuraminidase enzymatic treatments (FIG. 6E), protein homogenates ([…]) were incubated for 30 min at 37° C. with 1 mU/mg of neuraminidase (catalog no. N6514; Sigma-Aldrich). Equal amounts of protein ([…]) were electrophoresed on 4%-12% Tris-Glycine gels (Novex; Invitrogen), and electroblotted onto […] Hybond ECL nitrocellulose membranes (GE Healthcare). The membranes were blocked (10% fat-free milk) and incubated with primary antibodies followed by HRP-conjugated secondary antibodies (GE Healthcare). Results were visualized with ECL (ECL Western Blotting Detection Reagents; GE Healthcare) and exposure to CL-XPosure Film (Pierce Biotechnology). Densitometry was performed on the digital images obtained with a Kodak Image Station and software (PerkinElmer). The protein levels were normalized to those of β-actin to correct for differences in protein loading and/or transfer. […]

Gne^M712T/M712T mice [4] = experiment: Electron microscopy of kidney glomeruli after ManNAc treatment; assay type: in vivo, mouse; settings: age P19, versus untreated Gne^M712T/M712T
Method: Kidney samples were fixed overnight at 4° C. in 2% glutaraldehyde in 0.1 M cacodylate buffer (pH 7.4) and washed with cacodylate buffer. After postfixation with 1% OsO4 for 2 hours and a second wash with 0.1 M cacodylate buffer, the tissues were serially dehydrated in ethanol and embedded in Eponate 12 resin (Ted Pella). Thin sections (˜80 nm) were obtained using a Leica Ultracut UCT Ultramicrotome (Leica Microsystems), placed onto 400 mesh copper grids, and stained with saturated uranyl acetate in 50% methanol followed by lead citrate. The grids were viewed with a Philips 410 electron microscope (FEI Company) at 80 kV, and images were recorded on Kodak SO-163 film (Kodak).
as §2

Gne^M712T/M712T mice [5] = experiment: Rescue by ManNAc feeding: survival of homozygous mutant pups (ManNAc in drinking water of breeding pairs); assay type: in vivo, mouse
Description: Gne^M712T/M712T mice. Gne^M712T/M712T knockin mice were generated by targeting the M712T (ATG to ACG) mutation of exon 12 of the murine Gne gene (Gne, Uae1, GenBank NM_015828) (FIG. 2A). The nucleotide sequence for this Gne, Uae1 allele (GenBank NM_015828) without the mutation is shown below for easy reference (SEQ ID NO:3).
The mutant mice were maintained in the C57BL/6J background. Animals were housed in an accredited specific pathogen-free facility in accordance with accepted guidelines. Cages were ventilated in a temperature- and light-controlled environment (22° C., 30%-70% humidity, 12-hour light/12-hour dark cycle). The mice were fed irradiated chow (Prolab 5P75 Isopro 3000; PMI Nutrition International) and sterile water ad libitum. All euthanasia was performed by CO2 inhalation followed by cervical dislocation.
as §2
Differences between data groups were evaluated for significance using the 2-tailed Student's t test of unpaired data. For Mendelian distribution analysis, a goodness-of-fit (χ2) test was performed, while for comparisons of survival between treated and untreated mice of all genotypes (Gne^+/+, GneM^712T/+, and GneM^712T/M712T), a 2-tailed Fisher's exact test using a 2×3 table was employed. All data are presented as the mean±SD. A P value less than 0.05 was considered statistically significant.

laminin-1 = experiment: Immunoblots of kidney extracts with laminin-1 antibodies; assay type: in vivo, mouse; settings: Gne^+/+ and Gne^M712T/M712T littermates
Description: as §1
as §3, with “Biotechnology). For the neuraminidase enzymatic treatments (FIG. 6E), protein homogenates (25 mg) were incubated for 30 min at 37° C. with 1 mU/mg of neuraminidase (catalog no. N6514; Sigma-Aldrich).” for “Biotechnology).”

[6] = Tolerability and growth of ManNAc-treated mice; assay type: in vivo
Method: as §2

[7] = 3.5 months of age, ManNAc until P21
[8] = ~1.0 g/kg/d in drinking water, mice

## CC(=O)CCC(=O)N[C@@H]1C(O)O[C@H](CO)[C@@H](O)[C@@H]1O (stereo partly shown) [ManLev, N-levulinoylmannosamine]
Cultured cells
  incorporation of sialic acid analogs (SiaLev or SiaNAz) into cell surface glycoconjugates: incorporation of the downstream sialic acid analogs

## CC(=O)N[C@H]1[C@@H](O)[C@H](O)[C@@H](CO)O[C@H]1O [ManNAc, N-acetyl-D-mannosamine]
podocalyxin
  sialylation of podocalyxin in Gne^M712T/M712T kidney: markedly improved; also recorded: changed significantly
[1]
  safety in humans: evidence of the safety
Gne^M712T/M712T mice [2]; [7]
  kidney histology of Gne^M712T/M712T survivor (urinary space and tubules): mild red blood cell infiltrations
  skeletal muscle histology of Gne^M712T/M712T survivor: no structural or inflammatory abnormalities
Gne^M712T/M712T mice [2]; age P6
  cystic tubular dilatations in cortex and medulla: fewer cystic tubular dilatations
  kidney histology compared with untreated Gne^M712T/M712T mice at P2: significant histological improvement
Gne^M712T/M712T mice [2]; age P6, treated Gne^M712T/M712T mice
  abnormalities in liver, heart or skeletal muscle tissues: no abnormalities
Gne^M712T/M712T mice [2]; age P6, versus untreated at P2
  red blood cell infiltrates in tubules and Bowman space: reduced red blood cell infiltrates; also recorded: less severe
[3]
  sialylation of hyposialylated cells: became resialylated
Gne/Mnk epimerase; homozygous mutant skeletal muscle, after ManNAc (19.4% untreated), n=7, P=0.05
  Gne activity in Gne^M712T/M712T muscle, of untreated Gne^+/+ mean: 31% (±8.4)
Gne/Mnk epimerase; wild-type skeletal muscle, after ManNAc, n=3, P=0.2
  Gne activity in Gne^+/+ muscle, of untreated Gne^+/+ mean: 114% (±19.7)
PSA-NCAM; P2
  PSA-NCAM expression in muscle and kidney upon treatment: no change
PSA-NCAM; brain extracts, P=0.08
  increase of PSA-NCAM signal intensity in Gne^M712T/M712T brain versus untreated: 2%-28% and 2% to 28%
Gne/Mnk protein; after ManNAc (32.1% untreated), relative to β-actin, P=0.006
  Gne/Mnk protein in Gne^M712T/M712T kidney compared with Gne^+/+ littermates: 62.2%
Gne/Mnk protein; after ManNAc (38.5% untreated), relative to β-actin, P=0.12
  Gne/Mnk protein in Gne^M712T/M712T muscle compared with Gne^+/+ littermates: 68.8%
Gne/Mnk protein; muscle and kidney, ManNAc feeding
  Gne/Mnk protein expression in Gne^M712T/M712T tissues versus untreated: increased
Gne^M712T/M712T mice [4]
  filtration slits / open slit diaphragms: greater number of open slit diaphragms; also recorded: improved
  overall integrity of the GBM: significantly improved
  podocyte foot processes (fusion, flattening, formation): less fusion and flattening; also recorded: improved
Gne^M712T/M712T mice [5]; 1 mg/ml (~0.2 g/kg/d), 7 litters
  pups died at age P1-P3 (number): 13
Gne^M712T/M712T mice [5]; 1 mg/ml (~0.2 g/kg/day) in drinking water, 51 offspring
  surviving homozygous Gne^M712T/M712T mice beyond age P3: no surviving homozygous
Gne^M712T/M712T mice [5]; 5 mg/ml (~1 g/kg/d), 13 litters
  homozygous mutant pups died at age P1-P3 (number): 14
Gne^M712T/M712T mice [5]; 5 mg/ml (~1.0 g/kg/day)
  Gne^M712T/M712T mice that died between P6 and P12, of the twelve that survived past P3: nine
Gne^M712T/M712T mice [5]; 5 mg/ml (~1.0 g/kg/day) in drinking water, 102 newborns, P=0.01 vs 1 untreated survivor
  Gne^M712T/M712T pups surviving beyond P3 (number): 12
Gne^M712T/M712T mice [5]; 5 mg/ml (~1.0 g/kg/day), ManNAc ceased at P21
  Gne^M712T/M712T mice that survived past P21: Two
Gne^M712T/M712T mice [5]; 6 months old, ManNAc until P21
  myopathic features of the surviving Gne^M712T/M712T mouse: no obvious myopathic features
Gne^M712T/M712T mice [5]; ManNAc administration
  survival beyond P3, share of Gne^M712T/M712T pups: 43%
laminin-1
  laminin-1 intensity / pattern in kidney without or with ManNAc treatment: No difference
[6]; ManNAc ~1 g/kg/d
  size of surviving Gne^M712T/M712T mice versus littermates: remained smaller than their littermates
[6]; ManNAc ~1.0 g/kg/day
  weight of surviving Gne^M712T/M712T mice relative to wild-type littermates: 70%-100%
[6]; [8]
  side effects: no side effects were attributed to the treatment
  tolerability: well tolerated

## [N-]=[N+]=NCC(=O)N[C@@H]1C(O)O[C@H](CO)[C@@H](O)[C@@H]1O (stereo partly shown) [ManNAz, N-azidoacetyl-mannosamine]
Cultured cells
  incorporation of sialic acid analogs (SiaLev or SiaNAz) into cell surface glycoconjugates: incorporation of the downstream sialic acid analogs
